Measured values: patent US10154991B2, “Anesthetic compounds and related methods of use” (priority 2012, dated 2018)
Read-outs that look alike come from different tables or passages of the source.

Legend:
[1] = Octanol:water partition coefficients; format: physicochemical; conditions: 10 mM Tris pH 7.4; read-out: Octanol/Water Partition Coefficient ± SD (converted)
Procedure: One mg of each hypnotic was added to 10 ml of water buffered with 10 mM Tris (pH 7.4) and 0.5 ml or 1 ml of octanol. The mixture was stirred overnight and then centrifuged to more fully separate the organic and aqueous phases. The relative hypnotic concentrations in each phase (i.e. the partition coefficient) were determined by high performance liquid chromatography as described for blood.

[2] = In vitro metabolic half-life of hypnotics in rat blood; format: in vitro ADME; conditions: Sprague-Dawley, rat, rat blood
Procedure: On the day of study, whole blood was drawn from the femoral venous catheters of 3 Sprague-Dawley rats (1-2 ml/rat), immediately anticoagulated with heparin (38 U), pooled, and stored on ice. A 1 ml aliquot of blood was warmed at 37° C. for 5 minutes and hypnotic (from a 40 mM in dimethyl sulfoxide stock solution) was added to a final concentration of 100 μM. After the desired incubation time, a 150 μl sample was removed and the metabolic reaction was quenched with 150 μl acetonitrile (Sigma-Aldrich, St. Louis, Mo.). Zero time point samples were prepared by adding 150 μl acetonitrile to blood prior to adding hypnotic (from a 4 mM in dimethyl sulfoxide stock solution). The quenched samples were centrifuged and the resultant supernatant separated and stored at −20° C. until analyzed. Hypnotic concentrations in thawed samples were determined by high performance liquid chromatography using a Varian Prostar system with a 4.6×250 mm Proto 300 C18 column (Nest Group, Southborough, Mass.) with the UV detector set at 240 nm.

ICR mice = test: In vivo sedative/hypnotic testing, IV bolus, mice; design: species or system mouse; conditions: for slope of duration of LORR vs logarithm of dose: mice
Procedure: (§1) Animals were housed in a dedicated room at the vivarium of VivoPath Inc., located at Redstone Center, 55 Union Street, Worcester, Mass. Housing and care was as specified in the USDA Animal Welfare Act (9 CFR, Parts 1, 2, and 3) and as described in the Guide for the Care and Use of Laboratory Animals from the National Research Council. Environmental conditions of housing rooms are set at the following ranges: temperature: 70±7° F. (22±4° C.), humidity: 50±20%, light cycle: 12-hour light/12-hour dark cycle—lights on at 7 am and off at 7 pm., air changes: ten or more air changes per hour with 100% fresh air. The animals' body weights were measured prior to the first dose on each experimental day.
Adult ICR mice (20-30 g) were purchased from Harlan (South Easton, Mass.). Drugs were administered as intravenous bolus injection in a tail vein.
(§2) Drugs were prepared in either dimethylsulfoxide/saline or saline vehicle or hydroxypropyl-β-cyclodextrin (20% in water, pH 7.0) solution and were administered as an intravenous bolus injection. Animals received 1-4 doses of drug(s) during an experimental day, either ascending doses or different drugs. Doses were administered at intervals equal to the longer of 1 h or 10-times the duration of apparent sedative/hypnotic effects from the previous dose. The sedative/hypnotic properties of the drugs were evaluated by observation of the rats, ranging from mild excitation, mild sedation apparent due to reduced activity, and moderate sedation to hypnosis reflected by loss of righting reflex (LORR, the ability to place rear and hind legs under the body, as well as attenuation/loss of nociceptive reflexes).

dogs and monkeys = test: Preliminary studies of duration of action in dogs and monkeys; format: in vivo; conditions: large animals, similar to that in rats
Sprague-Dawley rats = test: In vivo sedative/hypnotic testing, IV bolus, rats; design: species or system rat; conditions: for slope of duration of LORR vs logarithm of dose: rats
Procedure: as §1
Adult male Sprague-Dawley rats (225-300 g) were purchased from Harlan (South Easton, Mass.).
as §2

rats = test: loss of righting reflexes (LORR) assay after IV bolus; conditions: for ED50: Rattus norvegicus, iv, read-out: ED50 ± SD; for Slope of Duration vs. Log Dose ± SD: duration of LORR vs log dose, rats
Procedure: Adult male Sprague-Dawley rats (230-350 gm) were purchased from Charles River Laboratories (Wilmington, Mass.) and housed in the Massachusetts General Hospital Center for Comparative Medicine animal care facility. All drugs were administered through a femoral venous catheter pre-implanted by the vendor prior to animal delivery to our animal care facility.
Immediately after injection, rats were turned supine. […] A stopwatch was used to measure the duration of LORR, which was defined as the time from drug injection until the animal spontaneously righted itself.

[3] = tested on: adrenal cortisol production
Procedure: Dexamethasone (0.01 mg/kg) was administered two hours before the first administration of ACTH and re-administered every 2 hours to maintain suppression. Dexamethasone pretreatment suppresses the hypothalamo-hypophyseal axis to prevent endogenous ACTH release and subsequent adrenocortical steroid secretion. […] Synthetic ACTH (Synacthen, 250 μg) was then administered at times after test substance administration to evaluate the effects of the test substance on the release of the adrenal steroid, cortisol.
All study methods described for Study 1 were repeated, except the ACTH administration at the end of infusion was omitted.

beagle dogs = conditions: dogs
Procedure: A pilot study was conducted in dogs to assess anesthesia induced by cyclopropyl-MOC-metomidate continuous infusion without a bolus induction dosing. Two dogs received cyclopropyl-MOC-metomidate as a 1 mg/kg/min IV infusion without prior bolus administration.
Anesthesia induction was determined using the methods described above.
Etomidate was administered to dogs at IV bolus doses ranging from 0.25 to 2 mg/kg. Anesthesia in the dogs was measured as described above. […] The bolus dose of 2 mg/kg was adopted to induce anesthesia prior to subsequent continuous infusions.
Propofol was administered to dogs as an IV bolus dose of 5 mg/kg to induce anesthesia followed by a continuous infusion at 0.4 mg/kg/min.

[4] = From Pejo et al.; cited from earlier work
[5] = pooled heparinised whole blood, 37° C., 100 μM, read-out: Blood Half-Life (95% CI)

Structure (SMILES)	logD [1]	half-life at 100 μM [2, 5] [s]	half-life at 100 μM ([2]; 37° C., 100 μM, read-out: Blood Half-Life (95% CI)) [s]	half-life at 100 μM ([2]; bound based on the lower limit of quantification, read-out: metabolic half-life in rat blood (converted)) [s]	ED50 (ICR mice; Mus musculus, sedation/hypnosis, IV) [mg/kg]	slope of duration of LORR vs logarithm of dose (ICR mice)	duration of action (dogs and monkeys) [min]	Rat response (Sprague-Dawley rats; IV bolus, doses as in the cell)	ED50 (Sprague-Dawley rats; Rattus norvegicus, sedation/hypnosis, IV) [mg/kg]	slope of duration of LORR vs logarithm of dose (Sprague-Dawley rats)	ED50 (rats) [mg/kg]	Slope of Duration vs. Log Dose ± SD (rats)	ACTH-induced plasma cortisol response ([3]; Study 1, dogs, after 120-minute infusion)	adrenal suppression ([3]; dogs, compared with the other test substances)	involuntary movements during recovery (beagle dogs)	bolus dose range inducing anesthesia (beagle dogs; IV bolus 0.25 to 2 mg/kg tested) [mg/kg]	minimum initial effective continuous infusion dose rate (beagle dogs; after 2 mg/kg bolus) [mg/kg/min]	respiratory effect during infusion (beagle dogs; after approximately 30 minutes at 0.15 mg/kg/min)	context dependence of recovery from anesthesia (beagle dogs; bolus vs 30- or 120-minute infusion)	Octanol/Water Partition Coefficient ± SD [4]
COC(=O)CCOC(=O)c1cncn1[C@H](C)c1ccccc1 [Methoxycarbonyl etomidate, methoxycarbonyl etomidate, reference compound]	2.28	24.6	8.4	20	~10	approximately 1.0	1 to 2	Sedation/hypnosis induced at 8 &	~8	approximately 1.0	5.3 ± 1.5	1.0±0.3 min/(log mg/kg)	–	–	–	–	–	–	–	–
CCOC(=O)c1cncn1[C@H](C)c1ccccc1 [Etomidate, (R)-ethyl-1-(1-phenylethyl)-1H-imidazole-5-carboxylate, reference compound]	–	–	–	–	–	approximately 10	–	–	–	~24	0.53 ± 0.17	24±4.7 min/(log mg/kg)	markedly inhibited	more profound and durable adrenal suppression	extended periods of involuntary movements	0.5 to 2	0.15	decrease in respiratory rate	marked context-dependency	800 ± 180
COC(=O)[C@H](C)COC(=O)c1cncn1[C@H](C)c1ccccc1 [α-(R)- methyl- methoxycarbonyl etomidate, α-R-methyl-methoxycarbonyl etomidate]	2.83	11.4	–	–	–	–	–	–	–	–	5.2 ± 0.5	–	–	–	–	–	–	–	–	–
